PubChem BioAssay (NCI)
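Protocol summary: plate cells (96-well), add compound at 5 concentrations, incubate 48 h, interpolate endpoints linearly. TGI marks complete inhibition of growth.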

Legend:
Experiment in all cases: NCI anticancer screen, dose series, 48 h
ACHN renal = system: ACHN renal
BT-549 breast = system: BT-549 breast
CAKI-1 renal = system: CAKI-1 renal
CCRF-CEM leukemia = system: CCRF-CEM leukemia
HCC-2998 colon = system: HCC-2998 colon
KM12 colon = system: KM12 colon
MDA-N = system: MDA-N
NCI-H226 lung = system: NCI-H226 lung
NCI-H23 lung = system: NCI-H23 lung
NCI/ADR-RES ovarian = system: NCI/ADR-RES ovarian
SN12C renal = system: SN12C renal
SNB-19 CNS = system: SNB-19 CNS
SNB-75 CNS = system: SNB-75 CNS
SW-620 colon = system: SW-620 colon
U251 CNS = system: U251 CNS
UO-31 renal = system: UO-31 renal

Structure (SMILES) | TGI (ACHN renal) [µM] | TGI (BT-549 breast) [µM] | TGI (CAKI-1 renal) [µM] | TGI (CCRF-CEM leukemia) [µM] | TGI (HCC-2998 colon) [µM] | TGI (KM12 colon) [µM] | TGI (MDA-N) [µM] | TGI (NCI-H226 lung) [µM] | TGI (NCI-H23 lung) [µM] | TGI (NCI/ADR-RES ovarian) [µM] | TGI (SN12C renal) [µM] | TGI (SNB-19 CNS) [µM] | TGI (SNB-75 CNS) [µM] | TGI (SW-620 colon) [µM] | TGI (U251 CNS) [µM] | TGI (UO-31 renal) [µM]
C#CCOC(=O)C(N)CSSCC(N)C(=O)O (stereo unspecified) | > 100 | > 100 | > 100 | > 100 | > 100 | > 100 | > 100 | > 100 | > 100 | > 100 | > 100 | > 100 | > 100 | > 100 | > 100 | > 100
CC1OC(OC2C(O)COC(OC3C(C)OC(OC4C(OC(=O)[C@]56CCC(C)(C)C[C@@H]5C5=CCC7[C@@]8(C)C[C@H](O)[C@H](OC9OC(CO)C(O)C(OC%10OC(CO)C(O)C(O)C%10O)C9O)[C@@](C)(CO)[C@@H]8CC[C@@]7(C)[C@]5(C)CC6)OCC(O)C4O)C(O)C3OC3OCC(O)C(O)C3O)C2O)C(O)C(O)C1O (stereo partly specified) | 19.5 | 25.8 | 16.3 | 25.2 | 4.44 | 33.5 | 7.24 | 25.1 | 10.4 | 26.4 | 3.87 | 20.3 | 30.9 | 20.6 | 20.1 | 9.92
[N-]=[N+]=Nc1c([N+](=O)[O-])c(Cl)nc2ccccc12 | 3.22 | 3.11 | 4.58 | 1.44 | 4.17 | 21.1 | 6.56 | 33.5 | 6.64 | 6.3 | 5.32 | 27.8 | 22.1 | 1.73 | 12.4 | 1.58
Cc1cc2c(cc1C)[n+](=O)c(N1CCN(c3ccc([N+](=O)[O-])cc3)CC1)c(C#N)n2[O-] | 50.8 | > 100 | > 100 | > 100 | > 100 | > 100 | > 100 | > 100 | > 100 | > 100 | > 100 | 49.6 | 21.7 | > 100 | 80.9 | > 100
CC1C/C(=N\N(C)C)C(C#N)(C#N)C1(C#N)C#N (stereo unspecified) | 23.1 | 22.1 | 3.38 | > 100 | 31.5 | > 31.6 | 33 | > 65.9 | 43.1 | 75.8 | 34.4 | > 70.6 | 27 | > 100 | 40.1 | 30.3
CN(C)CCNC(=O)c1cccc2nc3cccc(F)c3nc12 | 3.56 | 11.4 | 15.8 | 10.4 | 4.31 | 8.43 | 3.13 | 3.21 | 5.17 | 3.83 | 5.48 | > 35 | 13.2 | 5.82 | 6.61 | 4.83
COP1(=O)NCc2ncccc2O1 (stereo unspecified) | > 100 | > 100 | > 100 | > 100 | > 100 | > 100 | > 100 | > 100 | > 100 | > 100 | > 100 | > 100 | > 100 | > 100 | > 100 | > 100
CCn1c(=O)ccc2ccc(N(CCO)CCO)nc21 | > 100 | > 100 | > 100 | > 100 | > 100 | > 100 | > 100 | > 100 | > 100 | > 100 | > 100 | > 100 | > 100 | > 100 | > 100 | > 100
Cc1ccc(-n2c(Cn3nnc(-c4cccnc4)n3)nn(C3OC(COC(=O)c4ccccc4)C(OC(=O)c4ccccc4)C3OC(=O)c3ccccc3)c2=S)cc1 (stereo unspecified) | > 100 | > 100 | > 100 | > 100 | > 100 | > 100 | > 100 | > 100 | > 100 | > 100 | > 100 | > 100 | > 100 | > 100 | > 100 | > 100
c1ccc2sc(C3(N4CCCCC4)CCCCCC3)cc2c1 | 35 | 52.7 | 64.2 | 26.1 | 27.9 | 31.2 | > 100 | 33.7 | 43.3 | 45.8 | 41.4 | 39.4 | 42 | 25 | 31 | 60.8
O=C(CCc1ccc(O)c(O)c1)NCCc1cc(OCc2ccccc2)cc(OCc2ccccc2)c1 | 19.3 | 20.2 | 17.7 | 11.5 | 23.5 | 34.7 | 29.2 | 48.2 | 31 | 64 | 28.6 | 18 | 22.2 | 76.1 | > 100 | 12.6
CC1(C)CN=C(Nc2ccc(Cl)cc2)S1 | > 100 | > 100 | > 100 | > 100 | > 100 | > 100 | > 100 | > 100 | > 100 | > 100 | > 100 | > 100 | > 100 | > 100 | > 100 | > 100
CCN(CC)Cc1nc(C2CCC([N+](=O)[O-])O2)no1 (stereo unspecified) | > 100 | 56.7 | > 100 | > 100 | 42.4 | > 100 | 37.5 | > 100 | 41.7 | 76.3 | > 100 | 87.8 | 96.6 | 35.9 | 62.3 | > 100
CCCCCC(=O)OCC1(CO)C/C(=C\CC(C(C)C)C(C)C)C(=O)O1 (stereo unspecified) | > 100 | > 100 | > 100 | > 100 | > 100 | > 100 | > 100 | > 100 | > 100 | > 100 | > 100 | > 100 | > 100 | 64.4 | 85.3 | > 100
CCN(CC)C(=S)SC1CCOP(=O)(N(CCCl)CCCl)N1C (stereo unspecified) | > 67.5 | > 100 | > 86.8 | 43.1 | > 68.7 | > 58.5 | > 100 | > 97.3 | > 100 | > 100 | 46 | > 100 | > 100 | > 34.9 | > 52.5 | > 96.4
CCOC(=O)c1cccc([N+](=O)[O-])c1N | > 100 | > 100 | > 100 | > 100 | > 100 | > 100 | > 100 | > 100 | > 100 | > 100 | > 100 | > 100 | > 100 | > 100 | > 100 | > 100
